Assay [1] has as its target human A2a adenosine receptor (Homo sapiens (Human), UniProt P29274). The assay is described as follows: A2a receptor affinity radioligand binding assay ([3H] SCH58261, membranes from HEK293 or CHO cells). To be noted: unstarred values: radioligand binding. The method, boiled down: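 Displacement of tritiated SCH58261 (working dilution 4 nM) from recombinant human A2a receptor membranes (HEK293 or CHO), 60 min at room temperature in Tris pH 7.4/MgCl2 buffer after 15–30 min compound preincubation. Scintillation counting after filtration; normalized percent effect fitted 4-parameter logistic for IC50.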

The target in assay [2] is T1, human A2b adenosine receptor (Homo sapiens (Human), UniProt P29275). The experiment in a line: A2B antagonism in cAMP cell-based assay (LANCE cAMP, HEK293 cells, 600 nM adenosine). To be noted: values marked *: cAMP cell-based assay. The method, then: Measurement of A2A and A2B Antagonism in cAMP Cell-Based Assay
All subsequent liquid additions were performed using a multichannel pipettor. […] After this time 5 μL of either 300 nM or 600 nM adenosine (Sigma Cat. No. A9251) for A2A and A2B respectively was added and incubated for 30 minutes at 37° C. and 5% CO2 in a humidified environment. At this time detection mix was prepared by combining the LANCE Eu-W8044 labeled streptavidin and. Biotin-cAMP in detection buffer according to the manufacturers protocol. […] Curve fitting of the percent effect data versus the log of compound concentration used a 4-parameter concentration response curve fitting algorithm to calculate IC50 values.
For orientation: Time-resolved FRET reads energy transfer from a long-lived donor to a nearby acceptor.

Assay [3] addresses T1, human A2b adenosine receptor. The experiment in a line: A2b radioligand filtration binding assay (tritiated proprietary A2b antagonist, HEK293 membranes). To be noted: for IC50: unstarred values: radioligand binding; for A2B binding % inh. @ 10000 nM: unstarred. The method, boiled down:
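Displacement of a tritiated proprietary A2b antagonist from membranes of HEK293 cells recombinantly expressing human A2b receptor, measured by filtration and scintillation counting. Percent effect was normalized to total and non-specific binding and fitted with a 4-parameter logistic to give IC50.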

The results in this text go back to patent publication US12263171B2, “7-, 8-, and 10-substituted amino triazolo quinazoline derivatives as adenosine receptor antagonists, pharmaceutical compositions and their use” (Merck Sharp & Dohme LLC, priority 2018, dated 2025).

human A2a adenosine receptor, sequence (P29274 whole entry): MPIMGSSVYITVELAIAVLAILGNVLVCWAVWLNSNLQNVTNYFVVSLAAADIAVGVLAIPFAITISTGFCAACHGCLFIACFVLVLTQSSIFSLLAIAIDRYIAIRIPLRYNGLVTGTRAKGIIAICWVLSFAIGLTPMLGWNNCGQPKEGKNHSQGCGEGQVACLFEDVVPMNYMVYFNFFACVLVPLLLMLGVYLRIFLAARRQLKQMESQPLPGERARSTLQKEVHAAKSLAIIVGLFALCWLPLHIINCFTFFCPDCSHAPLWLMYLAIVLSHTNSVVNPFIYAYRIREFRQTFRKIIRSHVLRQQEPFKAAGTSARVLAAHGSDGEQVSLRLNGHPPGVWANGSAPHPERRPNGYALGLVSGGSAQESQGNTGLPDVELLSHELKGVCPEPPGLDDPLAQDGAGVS
T1 sequence (P29275 whole entry): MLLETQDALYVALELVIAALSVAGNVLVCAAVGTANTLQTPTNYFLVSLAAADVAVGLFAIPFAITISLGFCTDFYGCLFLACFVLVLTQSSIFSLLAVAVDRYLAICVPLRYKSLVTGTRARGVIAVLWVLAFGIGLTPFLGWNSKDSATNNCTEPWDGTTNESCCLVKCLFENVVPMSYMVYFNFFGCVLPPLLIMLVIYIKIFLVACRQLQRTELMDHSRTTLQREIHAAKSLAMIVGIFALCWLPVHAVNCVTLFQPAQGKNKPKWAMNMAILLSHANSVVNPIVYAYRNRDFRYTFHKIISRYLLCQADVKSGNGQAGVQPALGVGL

Regarding `COc1cccc2c1nc(N)n1nc([C@@H]3CCCN(c4ccc(=O)n(CC(F)(F)F)c4)C3)nc21` [Example 97, (R)-5-(3-(5-amino-7-methoxy-[1,2,4]triazolo[1,5-c]quinazolin-2-yl)piperidin-1-yl)-1-(2,2,2-trifluoroethyl)pyridin-2(1H)-one], the 50% inhibitory concentration (IC50) (in general, the concentration that gives 50% inhibition) was found to be 4.4 nM in assay [1] and 62.4 nM in assay [2].

As to `COc1cccc2c1nc(N)n1nc([C@@H]3CCCN(c4cnn(C(C)(C)C)c4)C3)nc21` [Example 6, (R)-2-(1-(1-(tert-butyl)-1H-pyrazol-4-yl)piperidin-3-yl)-7-methoxy-[1,2,4]triazolo[1,5-c]quinazolin-5-amine], the IC50 in assay [1] was 1.3 nM; in assay [2], 30 nM.

With `CC[C@H]1CC[C@@H](c2nc3c4ccc(OC)cc4nc(N)n3n2)CN1c1cnn(C(C)(C)CO)c1` [Example 215D], the half-inhibitory concentration (IC50) in assay [1] came out at 20.7 nM; in assay [2] it was 721 nM.

In the case of `COc1cccc2c1nc(N)n1nc([C@@H]3CCCN(c4cnn(C5CC6(COC6)C5)c4)C3)nc21` [Example 31, (R)-2-(1-(1-(2-oxaspiro[3.3]heptan-6-yl)-1H-pyrazol-4-yl)piperidin-3-yl)-7-methoxy-[1,2,4]triazolo[1,5-c]quinazolin-5-amine], the half-maximal inhibitory concentration (IC50) in assay [1] came to 50.8 nM; in assay [2], 1700 nM.

Take `COc1cccc2c1nc(N)n1nc([C@@H]3CCCN(c4ccc(=O)n(CC(F)(F)F)c4C)C3)nc21` [Example 94, (R)-5-(3-(5-amino-7-methoxy-[1,2,4]triazolo[1,5-c]quinazolin-2-yl)piperidin-1-yl)-6-methyl-1-(2,2,2-trifluoroethyl)pyridin-2(1H)-one]: the IC50 was 2.4 nM in assay [1] and 210 nM in assay [2].

`CC[C@H]1CC[C@H](c2nc3c4ccc(OC)cc4nc(N)n3n2)CN1c1cnn(C(C)(C)CO)c1` [Example 215C]: the IC50 in assay [1] turned out to be 8.7 nM; in assay [2] it was 1330 nM.

`Cn1cc(N2CCCC(c3nc4c5cccc(F)c5nc(N)n4n3)C2)cn1` (single isomer, unassigned) [Example 131A, (R or S)-7-fluoro-2-(1-(1-methyl-1H-pyrazol-4-yl)piperidin-3-yl)-[1,2,4]triazolo[1,5-c]quinazolin-5-amine]: the IC50 in assay [1] was 34 nM; in assay [2], 1680 nM.

Take `COc1cccc2c1nc(N)n1nc([C@@H]3CCCN(c4ncn(CC(C)(C)O)n4)C3)nc21` [Example 64, (R)-1-(3-(3-(5-amino-7-methoxy[1,2,4]triazolo[1,5-c]quinazolin-2-yl)piperidin-1-yl)-1H-1,2,4-triazol-1-yl)-2-methylpropan-2-ol]: the half-maximal inhibitory concentration (IC50) in assay [1] amounted to 0.1 nM; in assay [3], 374 nM.

As to `COc1cccc2c1nc(N)n1nc([C@@H]3CCCN(c4cnn(C5CCCC5O)c4)C3)nc21` (single isomer, unassigned) [Example 58B], the IC50 in assay [1] was 0.2 nM; in assay [3], 34.9 nM.

As to `COc1cccc2c1nc(N)n1nc([C@@H]3CCN(c4cnn(CC5CC5)c4)C3)nc21` [Example 162, (R)-2-(1-(1-(cyclopropylmethyl)-1H-pyrazol-4-yl)pyrrolidin-3-yl)-7-methoxy[1,2,4]triazolo[1,5-c]quinazolin-5-amine], the IC50 in assay [1] came to 7.8 nM; in assay [3], 17.6 nM.

As to `COc1cccc2c1nc(N)n1nc(C3CN(c4cnn(CC5(O)CCC5)c4)CC(F)(F)C3)nc21` (single isomer, unassigned) [Example 157B, (R or S)-1-((4-(5-(5-amino-7-methoxy-[1,2,4]triazolo[1,5-c]quinazolin-2-yl)-3,3-difluoropiperidin-1-yl)-1H-pyrazol-1-yl)methyl)cyclobutan-1-ol], the 50% inhibitory concentration (IC50) in assay [1] was determined as 0.7 nM; in assay [3] it was 512 nM.

As to `COc1ccc2c(c1)nc(N)n1nc([C@@H]3C[C@@H](C)CN(c4cnn(CC(C)(C)O)c4)C3)nc21` [Example 195B], the IC50 in assay [1] was 1.7 nM; in assay [3] it was 9690 nM.

As to `COc1cccc2c1nc(N)n1nc([C@H]3CCC4CCC3N4c3cnn(C)c3)nc21` (mixture of isomers) [Example 130A], the IC50 is 5.8 nM in assay [1] and 7020 nM in assay [3].

With `COc1cccc2c1nc(N)n1nc([C@@H]3CCCN(c4cnn(C)n4)C3)nc21` [Example 75, (R)-7-methoxy-2-(1-(2-methyl-2H-1,2,3-triazol-4-yl)piperidin-3-yl)-[1,2,4]triazolo[1,5-c]quinazolin-5-amine], the IC50 was 1 nM in assay [1] and 11.6 nM in assay [3].

With `Cn1cc(N2CCCC(c3nc4c5ccc(C(F)(F)F)cc5nc(N)n4n3)C2)cn1` (single isomer, unassigned) [Example 174, (R or S)-2-(1-(1-methyl-1H-pyrazol-4-yl)piperidin-3-yl)-8-(trifluoromethyl)-[1,2,4]triazolo[1,5-c]quinazolin-5-amine], the values for the IC50 in assay [1] and in assay [3] were 44.3 nM and 480 nM, respectively.

As for `COc1cccc2c1nc(N)n1nc(C3CC(F)CN(c4cnn(CC(C)(C)O)c4C)C3)nc21` (stereo not shown) [Example 152, 1-(4-(3-(5-amino-7-methoxy-[1,2,4]triazolo[1,5-c]quinazolin-2-yl)-5-fluoropiperidin-1-yl)-5-methyl-1H-pyrazol-1-yl)-2-methylpropan-2-ol], in assay [1], the 50% inhibitory concentration (IC50) came to 249 nM. Moreover, the “A2B binding % inh. @ 10000 nM” value in assay [3] is 38% inh. @ 10000 nM.

For `COc1cccc2c1nc(N)n1nc([C@H]3CC[C@H](C)N(c4cn(CC(C)(C)O)nc4C)C3)nc21` [Example 145B], the IC50 in assay [1] is 1.2 nM; in assay [3], 57.2 nM.

As for `COc1ccc2c(c1)nc(N)n1nc([C@@H]3CCCN(c4cnn(CC(C)(C)O)c4C)C3)nc21` [Example 181, (R)-1-(4-(3-(5-amino-8-methoxy-[1,2,4]triazolo[1,5-c]quinazolin-2-yl)piperidin-1-yl)-5-methyl-1H-pyrazol-1-yl)-2-methylpropan-2-ol], the concentration for half-maximal inhibition (IC50) in assay [1] came to 0.3 nM; in assay [3], 104 nM.

`COc1cccc2c1nc(N)n1nc([C@@H]3CCCN(c4cnn(C5CCC5O)c4)C3)nc21` (single isomer, unassigned) [Example 60B]: the half-maximal inhibitory concentration (IC50) in assay [1] was determined as 2 nM; in assay [3], 181 nM.

Regarding `COc1cccc2c1nc(N)n1nc([C@@H]3CCCN(c4ccc(F)cn4)C3)nc21` [Example 115, (R)-2-(1-(5-fluoropyridin-2-yl)piperidin-3-yl)-7-methoxy-[1,2,4]triazolo[1,5-c]quinazolin-5-amine], the concentration for half-maximal inhibition (IC50) came out at 1.2 nM in assay [1] and 59.1 nM in assay [3].

Consider `COc1cccc2c1nc(N)n1nc([C@@H]3CCC[C@H](c4cnn(CC(C)(C)O)c4)C3)nc21` (single isomer, unassigned) [Example 137, 1-(4-((1S,3R or 1R,3S)-3-(5-amino-7-methoxy-[1,2,4]triazolo[1,5-c]quinazolin-2-yl)cyclohexyl)-1H-pyrazol-1-yl)-2-methylpropan-2-ol], for which the IC50 in assay [1] came out at 120 nM; in assay [3], 8650 nM.

As to `COc1cccc2c1nc(N)n1nc(C3CCC(C)N(c4cnn(C(C)(C)CO)c4)C3)nc21` (single isomer, unassigned) [Example 146D], the IC50 is 0.8 nM in assay [1] and 4.6 nM in assay [3].

In the case of `COc1cccc2c1nc(N)n1nc([C@@H]3CCCN(c4cn(C5CCOCC5)nc4C)C3)nc21` [Example 46, (R)-7-methoxy-2-(1-(3-methyl-1-(tetrahydro-2H-pyran-4-yl)-1H-pyrazol-4-yl)piperidin-3-yl)-[1,2,4]triazolo[1,5-c]quinazolin-5-amine], the half-inhibitory concentration (IC50) is 0.4 nM in assay [1] and 404 nM in assay [3].

As for `COc1cccc2c1nc(N)n1nc([C@@H]3CCCN(c4cnn(C5CCOC5)c4)C3)nc21` (single isomer, unassigned) [Example 57A], the figures for the concentration for half-maximal inhibition (IC50) in assay [1] and in assay [3] were 0.4 nM and 70.5 nM, respectively.

In assay [1], `COc1cccc2c1nc(N)n1nc(C3CCCN(c4cnn(C)c4)[C@@H]3C)nc21` (stereo partly shown) [Example 128B] returned an IC50 of 6300 nM. For the same compound, in assay [3], the “A2B binding % inh. @ 10000 nM” value was found to be 14% inh. @ 10000 nM.

On to `COc1ccc2c(c1)nc(N)n1nc([C@@H]3CC[C@H](C)N(c4cnn([C@@H](C)C(C)(C)O)c4)C3)nc21` [Example 211A, (S)-3-(4-((2S,5R)-5-(5-amino-8-methoxy-[1,2,4]triazolo[1,5-c]quinazolin-2-yl)-2-methylpiperidin-1-yl)-1H-pyrazol-1-yl)-2-methylbutan-2-ol], for which the half-inhibitory concentration (IC50) is 0.5 nM in assay [1] and 3.4 nM in assay [3].

Consider `C[C@H]1CC[C@@H](c2nc3c4ccc(C#N)cc4nc(N)n3n2)CN1c1cnn(CC(C)(C)O)c1` [Example 202, 5-amino-2-((3R,6S)-1-(1-(2-hydroxy-2-methylpropyl)-1H-pyrazol-4-yl)-6-methylpiperidin-3-yl)-[1,2,4]triazolo[1,5-c]quinazoline-8-carbonitrile], for which the half-maximal inhibitory concentration (IC50) stood at 4.2 nM in assay [1] and 211 nM in assay [3].

Consider `COc1cccc2c1nc(N)n1nc([C@@H]3CCCN(c4cnn([C@@H]5CCNC5)c4)C3)nc21` [Example 45, 7-methoxy-2-((R)-1-(1-((R)-pyrrolidin-3-yl)-1H-pyrazol-4-yl)piperidin-3-yl)-[1,2,4]triazolo[1,5-c]quinazolin-5-amine], for which the half-inhibitory concentration (IC50) in assay [1] came to 2.6 nM; in assay [3], 350 nM.

With `COc1cccc2c1nc(N)n1nc([C@@H]3CCO[C@@H](c4cnn(C)c4)C3)nc21` [Example 139B], the figures for the IC50 in assay [1] and in assay [3] were 3.2 nM and 1910 nM, respectively.
